# Experimental data from US12233069B2, “Oral solid tablet comprising Bruton's Tyrosine Kinase inhibitor and preparation method therefor” (BEIGENE SWITZERLAND GMBH, priority 2019, dated 2025).
# “Also recorded” adds a separate entry of the source.
# What was measured:
# [1] = Hygroscopicity of the active pharmaceutical ingredient; type: physicochemical
# [2] = Solubility / biopharmaceutical classification system class; type: physicochemical
smiles,measurement,setting,value
"C=CC(=O)N1CCC([C@@H]2CCNc3c(C(N)=O)c(-c4ccc(Oc5ccccc5)cc4)nn32)CC1 [Zanubrutinib, (S)-7-[4-(1-acryloylpiperidine)]-2-(4-phenoxyphenyl)-4,5,6,7-tetrahydropyrazolo[1,5-a] pyrimidine-3-carboxamide]",hygroscopicity,[1],slightly hygroscopic
same,biopharmaceutical classification system class,[2],"class II (low solubility, and high permeability)"
same,solubility,[2]; active pharmaceutical ingredient,poor solubility; also recorded: pH-dependent solubility
